According to PMC7358525, “Characterization of PF-6142, a Novel, Non-Catecholamine Dopamine Receptor D1 Agonist, in Murine and Nonhuman Primate Models of Dopaminergic Activation” (Frontiers in Pharmacology, 2020):

Assays:
human D1 receptor = details: stated in discussion, no data or reference printed; cited from earlier work
[1] = test system: mPFC low frequency delta activity; test: mPFC low frequency delta field potential oscillation power, anesthetized rat; assay type: in vivo
Method: Experiments were performed on n=10 adult male Sprague-Dawley rats (275–305 g) under urethane anesthesia (1.5 g/kg, i.p.). The femoral vein was cannulated for i.v. administration of drugs. A stimulation electrode was placed in the CA1/subiculum region (coordinates: A-P = +6.3 mm, M–L = +5.2 mm, D-V = +8.0 mm) using stereotactic methods and unilateral local field potential (LFP) was recorded by a metal monopolar macroelectrode placed into the medial PFC (mPFC; coordinates: A-P = +3.0 mm, M-L = +0.6 mm, D-V = +5.0 mm). […] Evoked responses to the first and the second stimuli were identified (P1 and P2, respectively) and the amount of PPF determined by the formula: (P2 amplitude/P1 amplitude). Waveform averages used to calculate PPF consisted of 60 consecutive stimuli. Five minutes were allowed between administration of each drug dose and the starting of the subsequent average of each 10-min period after each cumulative dose (0.1–1 mg/kg, IV). Disruption in power of LFP delta activity was measured as the percentage of power in low frequency (0–1.8 Hz) irregular activity in the total (0–4 Hz) delta power range. LFP power spectra were determined during periods concurrent with waveform averages and PPF calculation. Statistical significance was determined by means of two-tailed paired Student’s t-test.

[2] = test system: prepulse inhibition of startle; test: Mouse prepulse inhibition (PPI) and acoustic startle; assay type: in vivo
Method: Drug and behaviorally naïve adult male C57BL/6J mice (9–11 weeks of age; n=8 per dose group) were used for PPI experiments. Subjects were tested individually in SR-Lab acoustic startle chambers (San Diego Instruments, San Diego CA, USA) equipped with a restrainer mounted atop a piezoelectric accelerometer which measured transduced movement in response to the presentation of audio stimuli presented through a speaker mounted 20 cm above the animal. Subjects were acclimated to an anteroom adjacent to the testing room at minimum 60 min prior to testing. Test sessions began with a 5 min acclimation period to background noise (65 dB) followed by presentation of six randomized repetitions of the 120 dB startle stimulus (40 ms duration) presented alone or paired in combination with a pre-pulse stimulus of 68, 72, or 74 db (20 msec in duration) presented 80 msec prior to the 120 dB startle stimulus, which was equivalent to +3, +7, and +9 db over background noise, respectively. Data were also recorded for no stimulus values to evaluate background level of response. The inter-trial interval between stimulus presentations was randomized and ranged from 10 to 20 s. Test compounds were administered 30 min (s.c.) prior to testing. […] Percent PPI was calculated for each individual subject as the relative change in the 120 dB startle response in the presence of each prepulse intensity using the formula: 100-((prepulse-pulse)/pulse)*100 as previously described ([Ralph-Williams et al., 2003]).
The experiment was analyzed using a two-way mixed model ANOVA (lme4 library in R software). The model included prepulse stimulus intensity levels, treatment (as all combinations of pre-treatment and treatment), and their interaction as fixed factors and random intercept, random slope for each animal as random factors. […] In order to adjust for multiple hypothesis testing we used false discover rate method which controls the expected proportion of false discoveries among the rejected hypotheses. For all statistical tests, p < 0.05 between groups was considered significant.

## Cc1cc(Oc2nccc3occc23)ccc1-c1c(C)ncc2nccn12 [PF-6142]
Human D1 receptor
  affinity: moderate affinity
[1]; PF-6142 0.1-1 mg/kg IV cumulative
  MK-801-induced increases in low frequency delta: dose-dependently reversed
[1]; PF-6142 cumulative IV up to 3 mg/kg (p=0.11)
  MK-801-induced increases in low frequency delta activity after SCH-23390 pretreatment: no effect
[2]; PF-6142 1.78 mg/kg + risperidone, 3, 7, 9 dB prepulse
  effect on %PPI in combination with risperidone: no effect
[2]; PF-6142 1.78 mg/kg alone, significant only at 9 dB prepulse intensity (p=0.029)
  %PPI vs vehicle: modest impairments in %PPI
[2]; adult C57BL/6J mice
  % PPI, PF-6142 alone (pilot experiments, Figure 4C): modest non-significant reductions in % PPI
[2]; in the presence of PF-6142
  effect on risperidone (0.56 mg/kg)-reduced startle responses: not altered
